Laboratory results taken from patent publication US4665068A, “Novel 9-chloro-1,5-benzothiazepine derivatives and their pharmaceutical use” (Tanabe Seiyaku Co., Ltd., priority 1984, dated 1987).
Where a name gives a salt, the structure may show the parent alone.

Tests used:
[1] = tested on: coronary blood flow of the isolated heart of guinea pig; assay: Coronary vasodilating activity, Langendorff's method, isolated heart of guinea pig; settings: for Coronary vasodilating activity: isolated guinea pig heart
Excerpt: (§1) On the other hand, when the coronary vasodilating activity is estimated by the Langendorff method using isolated hearts of guinea pigs, said activity of (+)-cis-2-(4-methoxyphenyl)-3-acetoxy-5-[2-(dimethylamino)ethyl]-9-chloro- 2,3-dihydro-1,5-benzothiazepin-4(5H)-one hydrochloride is about 10 times stronger than that of papaverine.
(Coronary vasodilating activity)
Langendorff's method was used for testing the effect on the coronary blood flow of the isolated heart of guinea pig (about 280 g). The isolated heart was perfused with Locke-Ringer solution containing 2% of defibrinated rabbit blood, which had been saturated with a mixed gas of 95% O2 and 5% CO2 (30° C.). Perfusion pressure was kept at 40 cm H2 O. A solution of a test compound in an aqueous 5% glucose solution was injected into the perfusing solution at a volume of 0.1 ml per heart. The outflow of the perfusate was measured by means of a drop counter.
The coronary vasodilating activity of the test compound was expressed as "±" if the increase in coronary blood flow is less than 0.5 ml/minute at a dose of 100 μg/heart; "+" if the increase is not less than 0.5 ml/minute at a dose of 100 μg/heart; "++" if the increase is not less than 0.5 ml/minute at a dose of 30 μg/heart; and "+++" if the increase is not less than 0.5 ml/minute at a dose of not more than 10 μg/heart.

[2] = Acute toxicity, oral, mice; settings: mouse, in vivo
Experimental: For example, the acute toxicity (LD50) of (+)-cis-2-(4-methoxypnenyl)-3-acetoxy-5-[2-(dimethylamino)ethyl]-9-chloro- 2,3-dihydro-1,5-benzothiazepin-4(5H)-one hydrochloride when orally administered to mice is about 1,000 mg/kg.

[3] = tested on: spontaneously hypertensive rats (SHR); assay: Hypotensive activity, systolic blood pressure of SHR after oral dosing (tail plethysmographic technique); assay type: in vivo, rat (spontaneously hypertensive; settings: 30 mg/kg oral
Experimental: A test compound (dose: 30 mg/kg) dissolved or suspended in water was administered orally to spontaneously hypertensive rats (SHR) (one group: 3 rats) fasted overnight. […] The hypotensive activity of the test compound was estimated at one or 4 hours after dosing and expressed as "-" if the decrease in blood pressure is less than 10 mm Hg; "+" if the decrease is not less than 10 mm Hg but less than 20 mm Hg; "++" if the decrease is not less than 20 mm Hg but less than 40 mm Hg; "+++" if the decrease is not less than 40 mm Hg but less than 60 mm Hg; or "++++" if the decrease is not less than 60 mm Hg.

[4] = tested on: vertebral artery blood flow; assay: Cerebral vasodilating activity, blood flow in vertebral artery of anesthetized dogs; assay type: in vivo, dog (male); settings: for increase in vertebral artery blood flow / cerebral vasodilating activity, times stronger than the 7-chloro derivative: intraarterial; for cerebral vasodilating activity, times stronger than the 7-chloro derivative: vs (±)-cis-3-acetoxy-7-chloro derivative hydrochloride; for Cerebral vasodilating activity (potency ratio): potency ratio to papaverine from dose-response curves, injected into vertebral artery
Experimental: as §1
(Cerebral vasodilating activity)
Male dogs weighing 10 to 20 kg were anesthetized with sodium pentobarbital (30 mg/kg, intravenous injection). The blood flow in vertebral artery was measured continuously by means of an electromagnetic flowmeter under artificial respiration. A test compound dissolved in an aqueous 5% glucose solution was injected into vertebral artery. The cerebral vasodilating activity of the test compound was estimated in terms of the potency ratio of said compound to papaverine, which was calculated from the dose-response curves thereof.

[5] = tested on: platelet aggregation; assay: Platelet aggregation-inhibiting activity (collagen, platelet-rich plasma, Born's method); assay type: cell-based, rat (male Sprague-Dawley); parameters: key to the marks not given beside the values; settings: final concentration 100 μg/ml, rat PRP, 37° C.
Excerpt: (Platelet aggregation-inhibiting activity)
Blood was collected from the abdominal aorta of male Sprague-Dawley rats which were anesthetized with ether. Nine volumes of rat blood were mixed with one volume of an aqueous trisodium citrate solution, and the mixture was centrifuged to give platelet-rich plasma ("PRP") as the supernatant solution. The bottom layer was further centrifuged to give platelet-poor plasma ("PPP") as the supernatant solution. Platelet counts were adjusted to 0.8-1×10^6 /mm^3 for PRP by dilution with PPP. After a mixture of 200 μl of the diluted PRP and 25 μl of a test compound solution (final concentration: 100 μg/ml) was stirred for 2 minutes at 37° C., 25 μl of a collagen solution [Biochim. Biophys.

| SMILES | Coronary vasodilating activity [1] | Hypotensive activity, 1 hr after dosing [3] | Hypotensive activity, 4 hrs after dosing [3] | Cerebral vasodilating activity (potency ratio) [4] | further results |
| --- | --- | --- | --- | --- | --- |
| COc1ccc(Cc2nccc3cc(OC)c(OC)cc23)cc1OC [Papaverine, reference compound] | + (increase is not less than 0.5 ml/minute at a dose of 100 μg/heart) |  |  |  |  |
| COc1ccc([C@@H]2Sc3c(Cl)cccc3N(CCN(C)C)C(=O)[C@@H]2OC(C)=O)cc1.Cl (single isomer, unassigned) [(+)-cis-2-(4-methoxyphenyl)-3-acetoxy-5-[2-(dimethylamino)ethyl]-9-chloro-2,3-dihydro-1,5-benzothiazepin-4(5H)-one hydrochloride] | +++ (increase is not less than 0.5 ml/minute at a dose of not more than 10 μg/heart) | ++++ (decrease is not less than 60 mm Hg) | +++ (decrease is not less than 40 mm Hg but less than 60 mm Hg) | 15 | LD50 [2]: ~1000 mg/kg; coronary vasodilating activity, times stronger than papaverine ([1]; isolated guinea pig hearts, vs papaverine): about 10 times; decrease in blood pressure, one hour after administration ([3]; 1 hour): about 74 mm Hg; decrease in blood pressure, 4 hours after administration ([3]; 4 hours): ~54 mm Hg; increase in vertebral artery blood flow [4]: remarkable increase in vertebral artery blood flow; cerebral vasodilating activity, times stronger than the 7-chloro derivative [4]: more than 3 times |
| COc1ccc([C@@H]2Sc3c(Cl)cccc3N(CCN(C)C)C(=O)[C@@H]2O)cc1.Cl (racemic) [(±)-cis-2-(4-methoxyphenyl)-3-hydroxy-5-[2-(dimethylamino)ethyl]-9-chloro-2,3-dihydro-1,5-benzothiazepin-4(5H)-one hydrochloride] | +++ (increase is not less than 0.5 ml/minute at a dose of not more than 10 μg/heart) |  |  |  | Platelet aggregation-inhibiting activity [5]: ++ |
| COc1ccc([C@@H]2Sc3c(Cl)cccc3N(CCN(C)C)C(=O)[C@@H]2O)cc1.[O-][Cl+3]([O-])([O-])O (single isomer, unassigned) [(+)-cis-2-(4-methoxyphenyl)-3-hydroxy-5-[2-(dimethylamino)ethyl]-9-chloro-2,3-dihydro-1,5-benzothiazepin-4(5H)-one perchlorate] | +++ (increase is not less than 0.5 ml/minute at a dose of not more than 10 μg/heart) | +++ (decrease is not less than 40 mm Hg but less than 60 mm Hg) | ++ (decrease is not less than 20 mm Hg but less than 40 mm Hg) | 22 | increase in vertebral artery blood flow [4]: remarkable increase in vertebral artery blood flow; cerebral vasodilating activity, times stronger than the 7-chloro derivative [4]: more than 3 times |
| COc1ccc([C@@H]2Sc3ccc(Cl)cc3N(CCN(C)C)C(=O)[C@@H]2OC(C)=O)cc1 (relative stereo) [(+)-cis-2-(4-methoxyphenyl)-3-acetoxy-5-[2-(dimethylamino)ethyl]-7-chloro-2,3-dihydro-1,5-benzothiazepin-4(5H)--one hydrochloride, reference compound] |  | ++ (decrease is not less than 20 mm Hg but less than 40 mm Hg) | + (decrease is not less than 10 mm Hg but less than 20 mm Hg) |  |  |
| COc1ccc([C@@H]2Sc3ccc(Cl)cc3N(CCN(C)C)C(=O)[C@@H]2OC(C)=O)cc1.Cl (racemic) [(±)-cis-2-(4-methoxyphenyl)-3-acetoxy-5-[2-(dimethylamino)ethyl]-7-chloro-2,3-dihydro-1,5-benzothiazepin-4(5H)-one hydrochloride, reference compound] |  |  |  | 5 |  |
| COc1ccc([C@@H]2Sc3c(Cl)cccc3N(CCN(C)C)C(=O)[C@@H]2OC(C)=O)cc1.Cl (racemic) [(±)-cis-2-(4-methoxyphenyl)-3-acetoxy-5-[2-(dimethylamino)ethyl]-9-chloro-2,3-dihydro-1,5-benzothiazepin-4(5H)-one hydrochloride] | +++ (increase is not less than 0.5 ml/minute at a dose of not more than 10 μg/heart) | +++ (decrease is not less than 40 mm Hg but less than 60 mm Hg) | +++ (decrease is not less than 40 mm Hg but less than 60 mm Hg) |  | Platelet aggregation-inhibiting activity [5]: ++ |
